Laboratory results: patent publication US12528782B2, “Prodrugs in the modulation of interleukin” (BRISTOL-MYERS SQUIBB COMPANY, priority 2019, dated 2026)

Experiment: PK in rats after PO dosing of the prodrug of Example 1: circulating parent Compound I and prodrug
Format: in vivo
Details: for AUC / Cmax / Tmax: rat, in vivo, analyte = labelled substance
[1] = 5 mg/kg, Example 1 dosed PO at 5 mpk
[2] = 25 mg/kg, Example 1 dosed PO at 25 mpk
[3] = 150 mg/kg, Example 1 dosed PO at 150 mpk

AUC Multiple+ (Example 1 dosed PO at 5 mpk) [X] | AUC Multiple+ (Example 1 dosed PO at 25 mpk) [X] | AUC Multiple+ (Example 1 dosed PO at 150 mpk) [X] | AUC [1] [µM·h] | Cmax [1] [µM] | Tmax [1] [h] | AUC [2] [µM·h] | Cmax [2] [µM] | Tmax [2] [h] | SMILES | AUC [3] [µM·h] | Cmax [3] [µM] | Tmax [3] [h] | circulating prodrug as % of parent (PO, 150 mpk dose) | exposure to the prodrug (circulating prodrug following administration) (PO, therapeutic doses (5 and 25 mpk))
11 | 57 | 473 | 19.2 ± 1.7 | 4.91 ± 1.4 | 0.5 | 96.9 ± 13.2 | 13 ± 1.4 | 3 | [2H]C([2H])([2H])NC(=O)c1cnc(NC(=O)C2CC2)cc1Nc1cccc(-c2nnn(C)n2)c1OC [Compound I] | 804 ± 26.9 | 58.2 ± 5.7 | 3 |  | 
 |  |  |  |  |  |  |  |  | [2H]C([2H])([2H])NC(=O)c1cn(COP(=O)([O-])[O-])/c(=N/C(=O)C2CC2)cc1Nc1cccc(-c2nnn(C)n2)c1OC.[Na+].[Na+] [Example 1] | 0.33 ± 0.21 | 0.69 ± 0.24 | 0.25 | less than 0.05% | no exposure
